SMILES strings stand for the structures. Where only a bound is given, the exact number is not on record here.

Sequence of 4-hydroxyphenylpyruvate dioxygenase (Q02110 whole entry): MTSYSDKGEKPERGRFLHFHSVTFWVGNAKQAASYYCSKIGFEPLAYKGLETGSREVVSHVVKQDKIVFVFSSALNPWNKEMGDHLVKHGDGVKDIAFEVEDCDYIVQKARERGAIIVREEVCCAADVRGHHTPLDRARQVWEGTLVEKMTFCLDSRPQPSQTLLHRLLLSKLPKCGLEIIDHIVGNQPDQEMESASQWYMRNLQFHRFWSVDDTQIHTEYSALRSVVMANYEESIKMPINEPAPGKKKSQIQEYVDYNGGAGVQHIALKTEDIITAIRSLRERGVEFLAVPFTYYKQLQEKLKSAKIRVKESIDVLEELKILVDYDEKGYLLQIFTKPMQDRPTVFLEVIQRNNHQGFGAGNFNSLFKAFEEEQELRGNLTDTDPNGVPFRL

This assay concerns the target 4-hydroxyphenylpyruvate dioxygenase (Sus scrofa, UniProt Q02110). As to the kind of experiment: In vitro inhibition against of 4-Hydroxyphenylpyruvate dioxygenase (4-HPPD) from pig liver by the enol borate method.
One may read the IC50 as the concentration that gives 50% inhibition. Read a high IC50 as a need for much substance. Molecule `COC(=O)C1OC1(C)c1ccccc1` (stereo unspecified) gave an IC50 of 120 µM.
Take `COC(=O)CC12OC1C(=O)C(OC)=CC2=O` (stereo unspecified): the IC50 came to 500 µM.
On to `C=C(c1ccccc1)C(O)C(=O)OC` (stereo unspecified), for which the IC50 is above 900 µM.
The molecule `CCOC(=O)C(C)Oc1ccc(O)cc1` (stereo unspecified) came in with a half-maximal inhibitory concentration (IC50) of 588 µM.
As for `COC(=O)COc1ccc(O)cc1`, the half-inhibitory concentration (IC50) was found to be 223 µM. Against the preceding molecule, the IC50 is about 2.6-fold lower.
Regarding `C=C(c1ccccc1)C(O)C(=O)O` (stereo unspecified), the 50% inhibitory concentration (IC50) was above 900 µM.
In turn, `COC(=O)CC1=CC(=O)C(OC)=CC1=O` came in with a 50% inhibitory concentration (IC50) of 150 µM.
Molecule `O=C(O)COc1ccc(O)cc1` displayed a half-inhibitory concentration (IC50) of 6 µM.
`CCOC(=O)COc1ccc(O)cc1` gave an IC50 of 73 µM.
On to `O=C1OCC(c2ccccc2)=C1O`, for which the 50% inhibitory concentration (IC50) stood at 0.5 µM.
Molecule `CC(Oc1ccc(O)cc1)C(=O)O` (stereo unspecified) returned a half-maximal inhibitory concentration (IC50) of 93 µM.
